Measurements reported in article PMC6985102 (Scientific Reports, 2020).

Columns and labels:
[1] = Pharmacokinetic study in mouse; details: for clearance / half-life: C57BL/6 albino, iv
Experimental: Blank plasma (10 µL) was spiked with 5 µL of SeC solution. NEM (10 µL, 0.4 M in DMA) and TCEP (5 µL, 0.2 M in H2O) were successively added to the spiked plasma. The mixture was vortexed for 30 sec and left for 10 min at room temperature before deproteinization using 50 µL of ACN. Two µL of processed sample were injected for LC-MS analysis (LC-MS parameters listed in Supplementary Table 2).
All animal experiments were approved by the Stockholm Southern Ethical Committee and performed in accordance with Swedish Animal Welfare Law (ethical permit no. ID 1031). CysSe2 (0.7 mg/mL) or MeSeA (1 mg/mL) was prepared in DPBS and the pH was adjusted to around 7.4. Ebselen or p-XSC was first dissolved in DMSO/Cremophor EL (1:1, v/v) at 5 mg/mL and then diluted with DPBS till 0.5 mg/mL. CysSe2 or MeSeA was injected into C57BL/6 albino mouse via the tail vein at a dose of 5 mg/kg; while the dose for ebselen and p-XSC was 2 mg/kg. Approximately 50 µL of blood were collected from the facial vein at different time points into EDTA-coated vials. SeC concentration in plasma was analyzed as described under section “Analysis of SeC using RECID”. The detected concentrations were fitted to a bolus injection in a one-compartment open model and the pharmacokinetic parameters were calculated using WinNonLin software (version 2.0).

BSA [2] = biological target: T1, BSA (Bos taurus, UniProt P02769); assay: Albumin binding degree by ultrafiltration; format: in vitro ADME, bovine; design: purchased Thermo Fisher; details: 5% albumin solution, SeC 20 µg/mL
Experimental: Two hundred µL of SeC solution were mixed with equal volume of H2O (control) or 5% BSA solution (final SeC concentration being 20 µg/mL). The mixture was transferred into an ultrafiltration tube (cut off 10 kDa, Sigma-Aldrich, 13239E) and centrifuged (2000 g and 5 min) to obtain the ultra-filtrate. Twenty µL of the ultra-filtrate were mixed with 50 µL of ACN and analyzed for SeC in parent form. Albumin binding degree was calculated as the percentage of SeC peak area in BSA solution in relative to that in H2O.

human serum albumin = human serum albumin (Homo sapiens, UniProt P02768); assay: XAS linear combination fitting of SeC-human plasma mixture (SeC-HP); details: XANES linear combination fitting, total SeC 20 µg/ml; for SeC-HSA (%): albumin-bound share in SeC-human plasma mixture; for SeC (%): free SeC share in SeC-human plasma mixture
Experimental: SeC solution (40 µL; 2 mg/mL) was mixed with HSA (50 mg/mL in H2O; […]) and kept at room temperature for 30 min. The crude material was separated on a Superdex 200 Increase 10/300 GL column (GE Healthcare). The mobile phase consisted of ACN/H2O (5/95; v/v) at a flow rate of 0.75 mL/min. A total of 40 fractions (1 ml per fraction) approximately were collected, pooled and lyophilized (selenol-human serum albumin conjugate; SeC-HSA).
The mixture of SeC and human plasma (SeC-HP) was prepared. Generally, SeC solution (20 µL; 2 mg/mL) was mixed with 2 mL human plasma, kept at room temperature for 10 min and lyophilized. Selenium K-edge XAS measurements were performed in QEXAFS mode using a Si(311) double-crystal monochromator in CLAESS beamline at ALBA synchrotron light facility (Barcelona, Spain). Self-supported 5 mm pellets of SeC-HSA or SeC-HP (~20 mg) were measured in fluorescence mode using a 5 elements Silicon drift detector. For the reference compounds, the appropriate amount of pure SeC was mixed with cellulose to form pellets with an optimum absorption jump in transmission mode. Transmission was measured with ionization chambers filled with appropriate mixtures of N2 and Kr gases. To avoid radiation damage, all measurements were performed at liquid N2 temperature using the cryostat available at the beamline. Data analysis was performed using Demeter software package (version 0.9.26)[23].
In order to confirm the albumin binding, SeC was firstly allowed to react with HSA. The crude material was then separated by size exclusion chromatography and the eluent corresponding to […] was collected and lyophilized (SeC-HSA). SeC-HSA was subsequently subjected to XAS measurement and compared to the SeC itself. […] In addition, since the XAS spectra of mixtures can be expressed as an additive combination of its constituents, a linear combination fitting analysis using the reference spectra of SeC-HSA and SeC was carried out to assess the amount of each form in the mixture of SeC and human plasma (SeC-HP).
27 Supplementary Table 3. Linear combination fitting results of X-ray absorption near
28 edge spectra. The fitting was performed over the spectra for selenocompound-human plasma
29 mixture between -20 and 50 eV keeping E0 fixed and equal to 0 eV.

C1498 cells = assay: Cytotoxicity of SeC (CellTiter-Glo); details: C1498 leukemic cells, 24 hr, within the concentration range tested
Experimental: C1498 cells were cultured in DMEM supplemented with FBS (10%, v/v), penicillin (100 unit/mL) and streptomycin (100 µg/mL). Cells under the exponential growth phase were used for the cytotoxicity study. […] The stock solutions were diluted with cell culture medium till target concentration range. Briefly, 350 µL of cell suspension (0.2 × 10^6 cells/mL) were mixed with equal volume of SeC solution. The mixture was aliquoted to 96-well plate (100 µL per well) and incubated for 24 hours. Cell viability was determined using CellTiter-Glo kit (Promega, G7571). Cells treated with the appropriate solvent were used as the control. Cell survival rate was calculated as the percentage of […] in SeC-treated cells/control group.

BSA [3] = biological target: T1, BSA; assay: Extraction efficiency of parent SeC after deproteinization (BSA, NEM-pretreated BSA)
Experimental: The spiked matrix was obtained by adding 10 µL of SeC solution into 10 µL of blank plasma or 5% BSA solution. To extract the parent SeC from the prepared spiked matrix (20 µL), 50 µL of ACN were added followed by rigorous vortexing. The mixture was centrifuged (30,000 g, 10 min) to obtain the extract. Two µL of the extract were injected into the liquid chromatography-mass spectrometry (LC-MS, Thermo TSQ Quantum Ultra) analyzer. Details about LC conditions (column, mobile phase and flow rate) and MS parameters were listed in Supplementary Table 1.
To clarify the role of albumin thiols, 10 µL of 5% BSA solution were pre-incubated with NEM (10 µL, 0.4 M in DMA) for 10 min before being mixed with SeC solution (10 µL). Again, 50 µL of ACN were used for extraction and 2 µL of the extract were injected into LC-MS for analysis.

[4] = Stability of selenocompound in plasma and selenol derivative in processed sample (RECID); format: in vitro ADME, human
Experimental: 48 Supplementary Table 7. Stability of selenocompound in plasma and selenol derivative in
49 processed sample. SeC-spiked plasma was treated as indicated and then analyzed using
50 RECID. SeC-NEM in processed sample was treated in the same way and then subjected to
51 LC-MS analysis. Stability was shown as the percentage of the peak area after indicated
52 treatment to that from base line value. SeC concentrations were 20 µg/mL. Results are shown
53 as the mean ± SD of three technical replicates.
SeC Sample Type Treatment
RT/24 hr 4 °C/24 hr -20 °C/24 hr Freeze-Thaw/5 Cycles

[5] = 5% BSA (pristine albumin) after deproteinization, SeC 20 µg/mL
[6] = NEM pretreated-BSA (albumin thiols blocked) after deproteinization, SeC 20 µg/mL
[7] = Spiked Plasma, 4 °C/24 hr, SeC 20 µg/mL
[8] = Spiked Plasma, -20 °C/24 hr, SeC 20 µg/mL
[9] = Spiked Plasma, Freeze-Thaw/5 Cycles, SeC 20 µg/mL
[10] = Spiked Plasma, RT/24 hr, SeC 20 µg/mL

T1 sequence (P02769 25-607): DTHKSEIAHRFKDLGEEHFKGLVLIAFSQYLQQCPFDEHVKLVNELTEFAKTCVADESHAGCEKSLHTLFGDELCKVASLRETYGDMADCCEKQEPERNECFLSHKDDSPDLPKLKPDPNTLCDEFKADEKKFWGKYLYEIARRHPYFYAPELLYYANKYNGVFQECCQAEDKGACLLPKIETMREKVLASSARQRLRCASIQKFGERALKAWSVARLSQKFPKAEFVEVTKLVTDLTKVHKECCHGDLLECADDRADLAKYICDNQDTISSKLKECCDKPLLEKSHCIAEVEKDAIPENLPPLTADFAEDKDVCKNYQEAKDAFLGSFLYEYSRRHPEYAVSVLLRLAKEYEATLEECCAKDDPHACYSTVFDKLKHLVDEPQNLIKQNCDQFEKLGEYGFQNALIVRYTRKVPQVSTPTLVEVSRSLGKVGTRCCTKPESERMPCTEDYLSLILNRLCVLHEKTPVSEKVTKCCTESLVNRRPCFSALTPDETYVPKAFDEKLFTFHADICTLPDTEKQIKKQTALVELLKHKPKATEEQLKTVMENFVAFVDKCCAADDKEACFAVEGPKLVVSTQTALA
Sequence of human serum albumin (P02768 25-609): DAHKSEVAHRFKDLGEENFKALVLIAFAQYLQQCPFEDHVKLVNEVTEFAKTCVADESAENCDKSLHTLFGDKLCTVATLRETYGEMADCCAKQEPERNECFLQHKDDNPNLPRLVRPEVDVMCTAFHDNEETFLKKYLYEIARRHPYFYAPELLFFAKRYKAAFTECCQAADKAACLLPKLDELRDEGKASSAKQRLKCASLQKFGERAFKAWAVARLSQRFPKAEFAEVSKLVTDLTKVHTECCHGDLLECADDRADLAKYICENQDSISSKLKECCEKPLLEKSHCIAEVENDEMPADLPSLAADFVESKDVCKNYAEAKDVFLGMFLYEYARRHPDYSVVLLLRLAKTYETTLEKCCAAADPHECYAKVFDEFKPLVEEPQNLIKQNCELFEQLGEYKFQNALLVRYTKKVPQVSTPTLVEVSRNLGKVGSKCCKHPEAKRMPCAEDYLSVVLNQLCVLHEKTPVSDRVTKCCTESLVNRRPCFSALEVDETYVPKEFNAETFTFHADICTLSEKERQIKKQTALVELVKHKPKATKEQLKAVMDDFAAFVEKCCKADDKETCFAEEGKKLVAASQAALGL

Row | SMILES | Albumin binding degree (BSA [2]) | SeC-HSA (%) (human serum albumin) | SeC (%) (human serum albumin) | Cytotoxicity (C1498 cells) | Extraction efficiency (BSA [3]; [5]) | Extraction efficiency (BSA [3]; [6]) [%] | clearance ([1]; plasma) [mL/min] | half-life ([1]; plasma) [min] | Stability (peak area vs base line) [4, 7] [%] | Stability (peak area vs base line) [4, 8] [%] | Stability (peak area vs base line) [4, 9] [%] | Stability (peak area vs base line) [4, 10] [%] | also measured
1 | N#C[Se]Cc1ccc(C[Se]C#N)cc1 [p-XSC, p-xyleneselenocyanate] | 52–100% | 100.0 | 0 | showed cytotoxicity | – | – | – | – | – | – | – | – | clearance ([1]; in vivo): 0.0967 mL/min; half-life ([1]; in vivo): 30.6 ± 7.2 min
2 | NC(C[Se][Se]CC(N)C(=O)O)C(=O)O (stereo not shown) [CysSe2, Selenocystine] | 52–100% | 80.4 | 19.6 | showed cytotoxicity | 21.4% | 79.6 | 0.642 | 8.4 ± 1.2 | 100.9 ± 7.9 | 99.6 ± 6.4 | 102.2 ± 0.6 | 98.6 ± 7.1 | Total exposure compared to that of ebselen ([1]; intravenous, CysSe2 5 mg/kg vs ebselen 2 mg/kg): around 72%; Exposure adjusted for dose, relative to ebselen ([1]; intravenous, dose-adjusted): less than one third
3 | C[Se](=O)O [MeSeA, methylseleninic acid] | 52–100% | 100.0 | 0 | showed cytotoxicity | 0% | 94.8 | – | – | 108.9 ± 4.8 | 116.0 ± 3.2 | 117.3 ± 0.5 | 110.9 ± 2.0 | Stability (peak area vs base line) ([4]; Processed sample (SeC-NEM derivative), 4 °C/24 hr): 106.7 ± 0.5%; Stability (peak area vs base line) ([4]; Processed sample (SeC-NEM derivative), -20 °C/24 hr): 103.2 ± 1.0%; Stability (peak area vs base line) ([4]; Processed sample (SeC-NEM derivative), Freeze-Thaw/5 Cycles): 104.3 ± 0.4%; Stability (peak area vs base line) ([4]; Processed sample (SeC-NEM derivative), RT/24 hr): 114.3 ± 0.3%
4 | C[Se]C[C@H](N)C(=O)O [MeSeCys, methylselenocysteine] | < 3% | – | – | no cytotoxic effect | – | – | – | – | – | – | – | – | Extraction efficiency (BSA [3]; bovine, 20 µg/mL): over 95%
5 | O=c1c2ccccc2[se]n1-c1ccccc1 [Ebselen] | 52–100% | 91.5 | 8.5 | showed cytotoxicity | 9.3% | 90.7 | 0.177 | 13.2 ± 2.4 | 113.1 ± 0.5 | 108.2 ± 3.2 | 97.2 ± 2.7 | 110.3 ± 1.8 | –
6 | C[Se]CC[C@H](N)C(=O)O [SeMet, Selenomethionine] | < 3% | – | – | no cytotoxic effect | over 95% | – | – | – | – | – | – | – | –
